According to patent US20260315436A1, “METHOD OF TREATING DISORDERS WITH SURF1 MALFUNCTION” (Cure Mito Foundation, priority 2023, published 2026):
“Also recorded” adds a separate entry of the source.

Tests used:
[1] = tested on: GM28012 SURF1 fibroblasts; assay: Seahorse mitochondrial stress test, fibroblast cell line GM28012 (Experiment 3, single compounds); format: cell-based, human; details: 48 h; for total ATP: highest concentration (10 uM); for increase in respiration compared with GM28010: GM28012 vs GM28010
Method: (§1) In order to evaluate selected compounds' impact on mitochondrial function in patient-derived fibroblasts compared to controls, three seahorse assays were conducted, Exp. 1: Fibroblast cell line GM28010—single compounds; Exp. 2. Fibroblast cell line GM28010—combination of compounds+ Single compounds; and Exp. 3: Fibroblast cell line GM28012—single compounds. Seahorse XF24 Extracellular Flux Analyzers continuously measure oxygen concentration and proton flux in the cell supernatant over time (Wu et al., 2007). The oxygen concentration and proton flux measurements are converted in OCR and ECAR values. This enables a direct quantification of mitochondrial respiration and glycolysis. The aim of the seahorse assays is to evaluate the impact of selected compounds on mitochondrial function in patient-derived fibroblasts compared to controls. Compounds used in the seahorse assays include posacanazole, sertaconazole, glabridin, zinglibroside (ginsenoside Z R1), AM281, cysteamine bitrartate, PF-06447475, losmapimod, telepravir, miltefosine, incyclinide, poziotinib, and methylene blue.
(§2) • Basal Oxygen Consumption (OCR): This reflects the cellular oxygen usage under basal conditions, encompassing both energy production (ATP turnover) and background oxygen leak from the mitochondria. • Oligomycin Injection: Oligomycin is a compound that inhibits ATP synthase, an enzyme crucial for ATP production within mitochondria. • Oligomycin-resistant Respiration: After oligomycin injection, minimal oxygen consumption persists, representing non-ATP linked oxygen leak from the mitochondria, often termed proton leak. • ATP-linked Respiration: This value is derived by subtracting the oligomycin-resistant respiration from the basal OCR. It signifies the oxygen consumption specifically linked to ATP production through mitochondrial oxidative phosphorylation. • Mitochondrial Bioenergetic Efficiency: This parameter reflects the percentage decrease in oxygen consumption observed after oligomycin injection, indicating the mitochondria's efficiency in utilizing oxygen for ATP generation. • FCCP Injection: FCCP is a chemical that disrupts the link between mitochondrial electron transport and ATP production. • Maximal Respiration: Following FCCP injection, the highest oxygen consumption rate is measured, representing the maximum capacity of the mitochondria to utilize oxygen for respiration. • Spare Respiratory Capacity: This parameter is calculated by subtracting basal respiration from maximal respiration.
GM28010 primary human fibroblasts obtained from patients with SURF1 Leigh syndrome were purchased from the Coriell Cell Repositories (Camden, N.J.; repository number GM28010).
GM00038 primary human fibroblasts purchased from the Coriell Cell Repositories (Camden, N.J., repository number GM00038) and were used as a healthy control.
Fibroblasts were grown in glucose according to recommendation. Cells were plated in XF96 plates in culture medium and plated at 10,000 cells/well. The day after plating, the cells were treated with the compounds. The treatments completed in glucose medium and galactose medium. The compounds were tested at for 48 hours. The compounds were incubated at (37 C, 5% CO2) until the day of the experiment. The fibroblasts were run at passage numbers: GM28012 SURF1 Fibroblasts P5.
The assay medium was 10 mM glucose or galactose DMEM supplemented with 2 mM glutamine and 1 mM pyruvate. Injection Ports for basal glucose: Port A: 2 μM oligomycin; Port B: 2.5 μM FCCP; Port C: 4 μM FCCP; and Port D: 2 μM rotenone and antimycin A.
The data were normalized to cell number per well after the run. The Hoechst-stained nuclei were counted with a Operetta High-Content Imager.

[2] = tested on: GM28010 SURF1 mutant fibroblasts; assay: Seahorse mitochondrial stress test, fibroblast cell line GM28010 (Experiment 1, single compounds); format: cell-based, human; details: 48 h; for ATP-linked respiration / basal respiration: galactose-cultured cells; for increase in ATP-linked respiration / increase in maximal respiration: both glucose and galactose-cultured cells
Method: as §1
Fibroblast cell line GM28010 is a primary human fibroblast cell line obtained from patients with SURF1 Leigh syndrome. It was purchased from the Coriell Cell Repositories (Camden, NJ, repository number GM28010). Cell line GM00038 was used as a healthy control for GM28010 and is a primary human fibroblast purchased from the Coriell Cell Repositories (Camden, NJ, repository number GM00038).
Fibroblasts were grown in glucose according to recommendation.
Cells were plated in XF96 plates in culture medium and were plated at 10,000 cells/well.
The day after plating, cells were treated with the compounds in Table 1. The treatments were completed in glucose medium and galactose medium. The compounds were tested at for 48 hours. The compounds were incubated at (37 C, 5% CO2) until the day of the experiment.
*Fibroblasts were run at passage numbers: GM28010 SURF1 Fibroblasts P5; GM00038F controls P9.
• Assay Medium: 10 mM glucose or galactose DMEM supplemented with 2 mM glutamine and 1 mM pyruvate. • Injection Ports for basal glucose: Port A: 2 μM oligomycin; Port B: 2.5 μM FCCP; Port C: 4 μM FCCP; and Port D: 2 μM rotenone and antimycin A.
Data were normalized to cell number per well after the run. The Hoechst-stained nuclei were counted with the Operetta High-Content Imager.
as §2

[3] = glucose and galactose conditions
[4] = glucose-cultured cells, listed as incyclinide
[5] = 10 μM, listed as Ginsenoside Z R1 (Zinglibroside)
[6] = glucose-cultured cells, listed as Telepravir
[7] = glucose and galactose conditions, listed as glabridin
[8] = glucose and galactose conditions, listed as Posacanazole
[9] = glucose and galactose conditions, listed as miltefosine

Cc1c(C(=O)NN2CCOCC2)nn(-c2ccc(Cl)cc2Cl)c1-c1ccc(I)cc1 [AM281]
ATP production rates [1]: increased ATP production rates
ATP via glycolysis ([1]; 1 μM and 5 μM): OCR. ↑ATP via glycolysis @
maximal respiration (maximal OCR) [1, 3]: dose-dependent decreased maximal respiration
ATP production through glycolysis ([2]; 5 and 10 μM): increase in ATP production primarily through glycolysis
respiration [2, 3]: did not result in major changes

NC(=O)C1=C(O)C[C@@H]2C[C@@H]3Cc4cccc(O)c4C(=O)C3=C(O)[C@]2(O)C1=O [Incyclinide, incyclinide]
all respiratory parameters measured ([1]; glucose-cultured cells): dose-dependent decrease
toxicity ([1]; glucose-cultured cells): Toxicity observed in glucose
toxicity [1, 4]: showed toxicity
ATP-linked respiration [2]: ↑ basal respiration and ATP-
basal respiration [2]: ↑ basal respiration and ATP-
ATP-linked respiration ([2]; listed as incyclinide): some increase
basal respiration ([2]; listed as incyclinide): some increase
all respiratory parameters measured ([2]; glucose-cultured cells): dose-dependent decrease
toxicity ([2]; glucose-cultured cells): Toxicity in glucose
toxicity [2, 4]: some toxicity

CC1(C)CC[C@]2(C(=O)O)CC[C@]3(C)C(=CC[C@@H]4[C@@]5(C)CC[C@H](O[C@@H]6O[C@H](C(=O)O)[C@@H](O)[C@H](O)[C@H]6O[C@@H]6O[C@H](CO)[C@@H](O)[C@H](O)[C@H]6O)C(C)(C)[C@@H]5CC[C@]43C)[C@@H]2C1 [Ginsenoside Z R1]
ATP production through OXPHOS [1]: increase in ATP production
ATP production through glycolysis [1]: increase in ATP production
ATP production through OXPHOS ([1]; 1 μM): increased ATP production through OXPHOS
total ATP production rate ([1]; 1 μM): increased ATP production through OXPHOS and total ATP production rate
maximal respiration (maximal OCR) [1, 3]: did not result in changes
ATP production through OXPHOS [2, 5]: increase in ATP production
ATP production through glycolysis [2, 5]: increase in ATP production
ATP production through OXPHOS ([2]; 10 μM, listed as Zinglibroside): both conditions: ↑ATP via
ATP production through glycolysis ([2]; 10 μM, listed as Zinglibroside): both conditions: ↑ATP via
ATP production through OXPHOS ([2]; 10 μM, listed as zinglibroside): increase in ATP production
ATP production through glycolysis ([2]; 10 μM, listed as zinglibroside): increase in ATP production
maximal respiration [2, 3]: did not result in changes

CCC[C@H](NC(=O)[C@@H]1[C@H]2CCC[C@H]2CN1C(=O)[C@@H](NC(=O)[C@@H](NC(=O)c1cnccn1)C1CCCCC1)C(C)(C)C)C(=O)C(=O)NC1CC1 [Telaprevir, telaprevir]
ATP production through OXPHOS [1]: Dose-dependent increase
total ATP production rate [1]: without changes
respiration ([1]; galactose conditions): did not result in major changes
ATP production through OXPHOS ([1]; glucose): dose-dependent increase
ATP-linked respiration ([1]; glucose-cultured cells): dose-dependent increase
maximal respiration ([1]; glucose-cultured cells): without any changes
ATP-linked respiration [1, 6]: dependent ↑ATP-Linked
maximal respiration [1, 6]: through OXPHOS, no change
ATP production through OXPHOS ([1]; glucose, listed as Telepravir): dependent ↑ATP-Linked
respiration [2, 3]: did not result in major changes

CC1(C)C=Cc2c(ccc3c2OC[C@@H](c2ccc(O)cc2O)C3)O1 [Glabridin, glabridin]
maximal respiration (maximal OCR) [1, 3]: ↓ maximal OCR in both
maximal respiration (maximal OCR) [1, 7]: decreased maximal respiration
respiration [2, 3]: did not result in major changes
respiration [2, 7]: did not result in major changes

N#Cc1cccc(-c2c[nH]c3ncnc(N4CCOCC4)c23)c1 [PF-06447475]
ATP production through glycolysis [1]: increase in ATP production glycolysis; also recorded: both conditions. ↑ ATP
total ATP production rate ([1]; 1 μM): increased the total ATP Production rate
maximal respiration (maximal OCR) [1, 3]: did not result increase maximal respiration
ATP production through OXPHOS [2]: increase in ATP production; also recorded: both conditions. ↑ ATP
ATP production through glycolysis [2]: increase in ATP production; also recorded: both conditions. ↑ ATP
maximal respiration [2, 3]: did not result increase maximal respiration; also recorded: did not result in an increase

CC[C@@H]([C@H](C)O)n1ncn(-c2ccc(N3CCN(c4ccc(OC[C@@H]5CO[C@@](Cn6cncn6)(c6ccc(F)cc6F)C5)cc4)CC3)cc2)c1=O [Posaconazole, posaconazole]
total ATP production rate [1]: compensation with increased glycolysis
respiration [1, 3]: decreased respiration
respiration [1, 8]: ↓ respiration, total ATP rate
total ATP [1]: total ATP drops
total ATP ([1]; listed as Posacanazole): (10 uM) where ATP drops
total ATP production rate ([1]; listed as Posacanazole): compensated by glycolysis
toxicity ([2]; all concentrations): toxic at all conc
respiration [2, 3]: did not result in major changes
respiration [2, 8]: ↓ respiration
respiration ([2]; higher concentrations): decreased respiration

CCCCCCCCCCCCCCCCOP(=O)([O-])OCC[N+](C)(C)C [Miltefosine, miltefosine]
ATP production through glycolysis [1]: both conditions; ↑ in ATP
respiration [1, 9]: did not result in major changes
ATP production through glycolysis ([1]; listed as miltefosine): increase in ATP production through glycolysis
respiration [2, 9]: did not result in major changes

C=CC(=O)N1CCC(Oc2cc3c(Nc4ccc(Cl)c(Cl)c4F)ncnc3cc2OC)CC1 [Poziotinib, poziotinib]
respiration ([2]; glucose and galactose conditions, listed as poziotinib): did not result in major changes
glycolysis ([2]; glucose-cultured cells): dose-dependent decrease
maximal respiration ([2]; glucose-cultured cells): dose-dependent decrease
toxicity ([2]; glucose-cultured cells): some toxicity
ATP production through glycolysis ([2]; listed as poziotinib): decrease ATP production through glycolysis

Cc1c(F)cc(C(=O)NC2CC2)cc1-c1ccc(C(=O)NCC(C)(C)C)cn1 [Losmapimod, losmapimod]
ATP production through OXPHOS [1]: Increased ATP-linked respiration and ATP production through OXPHOS
ATP production through glycolysis [1]: glucose-cultured cells. ↓ATP
total ATP production rate [1]: without changes; also recorded: maintained
increase in respiration compared with GM28010 [1]: did not increase respiration as much
increase in respiration compared with GM28010 ([1]; listed as losmapimod): not as impressive as was observed in GM28010
ATP-linked respiration ([1]; glucose-cultured cells, listed as losmapimod): increased in ATP-linked respiration
ATP production through glycolysis ([1]; listed as losmapimod): decrease in ATP production through glycolysis
total ATP production rate ([1]; listed as losmapimod): maintained
ATP-linked respiration ([1]; medium not stated): Increased ATP-linked respiration
ATP production through glycolysis [2]: conditions. ↓ ATP production
increase in ATP-linked respiration [2]: 12-15% increases in
increase in maximal respiration [2]: 12-15% increases in
increase in ATP-linked respiration ([2]; listed as losmapimod): 12-15%
increase in maximal respiration ([2]; listed as losmapimod): 12-15%
respiration [2, 3]: Increased respiration
increase in respiration ([2]; glucose and galactose culture conditions): up to 15%
ATP production through glycolysis ([2]; listed as losmapimod): decrease in ATP production through glycolysis
